Experimental data from patent US20220281835A1, “PHENOL DERIVATIVES FOR USE AS ANTIMICROBIAL, ANTIBACTERIAL, BACTERICIDE” (SPECIAL PRODUCT'S LINE S.P.A., priority 2019, published 2022).
Converted amounts (≈) assume the structure as drawn.

Legend:
[1] = tested on: Enterococcus faecalis strain 2 (collection); experiment: MIC/MBC broth-dilution (micromethod), CLSI; assay type: cell-based; settings: for MBC: E. FAECALIS strain 2, kills 99,9% of initial population
Excerpt: (§1) Determination of Minimal Inhibitory Concentration (MIC), Minimal Bactericidal Concentration (MBC), bactericidal curves and killing rate on Gram positive and Gram negative bacteria strains, for the evaluation of the bactericidal activity of compounds of example 1 (n. 1 to 14).
(§2) Sensitivity tests have been performed in broth-dilution (micromethod) with the purpose to test the possible bacteriostatic and/or bactericidal power in different compounds, in accordance with CLSI guidelines (Clinical and Laboratory Standards Institute). In details, phenotypic methods based on in vitro MIC and MBC determination have been performed on previously isolated bacterial strains, identified and characterized at the level of their antibiotic susceptibility profile. According to MIC and MBC data, the Killing Rate was calculated as the ratio between MBC and MIC on which basis it is possible to define the compounds tested as bactericides (killing rate=1-4), or bacteriostatic (killing rate >4).
(§3) Preparation of the solution containing molecules: for each molecule to be tested, solutions were made as DMSO Stock, with a concentration of 2.560 mg/ml, used to test 12 dilutions with the following scalar drug concentrations: 512-256-128-64-32-16-8-4-2-1-0.5-0.25 μg/ml. The scalar dilutions were prepared directly on plates by using Mueller Hinton Broth (MHB) as a solvent.
(§4) Bacterial suspension preparation: cryostrains preserved at −80° C. were recovered by incubation in growth medium (Brain Heart Infusion Broth, BHI) for 24-48 hours at 37° C. followed by passages in agar growth medium (Columbia Blood Agar). Colonies with less than 30 hours are suspended in MHB with the purpose to prepare a bacterial suspension with a turbidity of 0.5 MF, containing approximately 1.5×10^8 cfu/ml. This injection is additionally diluted in MHB until reaching a final concentration of 5×10^5 cfu/ml (range 3-7×10^5 cfu/ml). Identical volumes of this bacterial suspension are added on a plate, for each well containing drug scalar dilutions, to obtain a final concentration between 512 a 0.25 μg/ml. The set up of bacterial suspensions as well as the passage on slate has always been performed within 30 minutes, in order not to alter the concentration of the bacterial suspension. Simultaneously, check in broth-microdilution only with solvent (in order to exclude that the effect of growth inhibition might be due to the drug solution solvent), positive growth control in absence of DMSO and drug, and negative purity control only with injection broth are performed. As a consequence the slate is incubated at 37° C. for 24 and 48 hours in aerobes. The 24 hours MIC is considered as the minimum drug concentration able to inhibit bacterial growth, which makes it possible to observe the absence of bacterial growth and the absence of turbidity. The same observations are valid to evaluate 48 hours MIC. After the incubation, an equal volume of bacterial suspension from each well is plated on agar growth medium and incubated for 24-48 hours at a temperature of 37° C. in aerobes, in order to define the MBC after the incubation. The MBC is evaluated as the minimum concentration of drug able to kill the 99,9% of the initial bacterial population.
(§5) Bacterial strains: the bactericidal and/or bacteriostatic power of the synthesized compounds can be determined by using standard reference strains such as: • 1. S. Aureus ATCC 25923 res kan, tob, res streptogramine (sga-sgb, efflux), res mupirocina (at low level), res trimetoprim; • 2. S. Aureus strain 1 (collection) mec a+, res kan tob gen, res quinolones, lincosamides, res streptogramine (sga-sgb), mlsb+sa constituent, mlsb constituent, res mupirocine (low level), res trimetoprim; • 3. S. Aureus strain 2 (collection) acquired penicillinase, res kan tob, res streptogramine (sga-sgb, efflux), res mupirocine (low level), res trimetoprim; • 4. Enterococcus faecalis ATCC 51299 (str+gen res at high level, mlsb res, simil van b res); • 5. […]

[2] = tested on: S. Aureus strain 1 (collection) mec a+; experiment: MIC/MBC broth-dilution (micromethod), CLSI; assay type: cell-based; settings: Staphylococcus aureus; for MBC: kills 99,9% of initial population
Excerpt: as §1
In details, phenotypic methods based on in vitro MIC and MBC determination have been performed on previously isolated bacterial strains, identified and characterized at the level of their antibiotic susceptibility profile. According to MIC and MBC data, the Killing Rate was calculated as the ratio between MBC and MIC on which basis it is possible to define the compounds tested as bactericides (killing rate=1-4), or bacteriostatic (killing rate >4).
as §3
as §4, with “The 24 hours MIC is considered as the minimum drug concentration able to inhibit bacterial growth, which makes it possible to observe the absence of bacterial growth and the absence of turbidity.” left out, “incubation.” for “incubation. The MBC is evaluated as the minimum concentration of drug able to kill the 99,9% of the initial bacterial population.”
Bacterial strains: the bactericidal and/or bacteriostatic power of the synthesized compounds can be determined by using standard reference strains such as: • 1. S. Aureus ATCC 25923 res kan, tob, res streptogramine (sga-sgb, efflux), res mupirocina (at low level), res trimetoprim; • 2. S. Aureus strain 1 (collection) mec a+, res kan tob gen, res quinolones, lincosamides, res streptogramine (sga-sgb), mlsb+sa constituent, mlsb constituent, res mupirocine (low level), res trimetoprim; • 3. S. Aureus strain 2 (collection) acquired penicillinase, res kan tob, res streptogramine (sga-sgb, efflux), res mupirocine (low level), res trimetoprim; • 4. Enterococcus faecalis ATCC 51299 (str+gen res at high level, mlsb res, simil van b res); • 5. Enterococcus faecalis strain 1 (collection) (str+kan res at high level str res at high level tetracycline res); • 6. Enterococcus faecalis strain 2 (collection) (kan res at high level); • 7. E. coli of Collection: RESISTANT to ampicilline, amox+ac clav, ampicillinr+sulbactam, cefalexine, cefuroxime, cefuroxime axetil, cefixime, cefpodoxime, cefotaxime, ceftazidime, ceftriaxone, netilmicine, tobramicine, ciprofloxcine, trim/sulfametox, esbl pos, SENSITIVE to meropenem and gentamicine, INTERMEDIATE to amikacine; • 8. 8.

[3] = tested on: P. Aeruginosa of collection; experiment: MIC/MBC broth-dilution (micromethod), CLSI; assay type: cell-based; settings: Pseudomonas aeruginosa
Excerpt: as §1, §2, §3, §4, §5

[4] = tested on: Enterococcus faecalis ATCC 51299; experiment: MIC/MBC broth-dilution (micromethod), CLSI; assay type: cell-based; settings: ATCC51299, E. FAECALIS ATCC 51299, values without asterisk
Excerpt: as §1, §2, §3, §4, §5

S. Aureus ATCC 25923 = experiment: MIC/MBC broth-dilution (micromethod), CLSI; assay type: cell-based; settings: Staphylococcus aureus, ATCC25923, marked *: MIC value read at 48 hours
Excerpt: as §1, §2, §3, §4, §5

[5] = tested on: Enterococcus faecalis strain 1 (collection); experiment: MIC/MBC broth-dilution (micromethod), CLSI; assay type: cell-based; settings: E. FAECALIS strain 1, values without asterisk
Excerpt: as §1, §2, §3, §4, §5

[6] = tested on: S. Aureus strain 2 (collection); experiment: MIC/MBC broth-dilution (micromethod), CLSI; assay type: cell-based; settings: Staphylococcus aureus, marked *: MIC value read at 48 hours
Excerpt: as §1, §2, §3, §4, §5

[7] = E. FAECALIS strain 2, marked *: MIC value read at 48 hours
[8] = marked *: MIC value read at 48 hours
[9] = E. FAECALIS strain 2, values without asterisk

Row | MIC [1, 7] [µg/mL] | MIC [2, 8] [µg/mL] | MIC ([2]; values without asterisk) [µg/mL] | SMILES | MBC [1] [µg/mL] | MBC [2] [µg/mL] | also measured
1 | 64 to 128 (≈ 135 to 269 µM) | 64 to 128 (≈ 135 to 269 µM) | – | O=C(O)C=Cc1ccc(-c2ccc(O)c(C34CC5CC(CC(C5)C3)C4)c2)c(C=NOCC(=O)O)c1 [Compound 14, 3-[3′-Adamant-1-yl-4′-hydroxy-2-carboxymethoxyiminomethyl-biphenyl-4-yl]-acrylic acid] | – | – | –
2 | 0.5 to 1 (≈ 1.29 to 2.57 µM) | – | 2 (≈ 5.15 µM) | C/C(=C\c1ccc(-c2ccc(O)c(C34CC5CC(CC(C5)C3)C4)c2)cc1)C(=O)O [Compound 3, E-2-Methyl-3-[3′-(adamantan-1-yl)-4′-hydroxybiphenyl-4-yl]acrylic Acid] | 8 (≈ 20.6 µM) | 4 to 8 (≈ 10.3 to 20.6 µM) | melting point: 200 °C
3 | – | 8 to 32 (≈ 12.6 to 50.2 µM) | – | CCCCC/C=C\C/C=C\CCCCCCCC(=O)Oc1ccc(-c2ccc(/C=C/C(=O)O)cc2)cc1C12CC3CC(CC(C3)C1)C2 [Compound 20, (E)-Octadeca-9,12-dienoic acid 3-adamantan-1-yl-40-(2-carboxyvinyl)-biphenyl-4-yl ester] | – | – | MIC [1, 9]: 128 µg/mL (≈ 201 µM); MIC [3]: 20 µg/mL (≈ 31.4 µM)
4 | 16 to 32 | 16 to 32 | – | N=C(N)NCc1cc(C=CC(=O)O)ccc1-c1ccc(O)c(C23CC4CC(CC(C4)C2)C3)c1.O=C(O)C(F)(F)F [Compound 15, 3-(3′-Adamantan-1-yl-2-guanidinomethyl-4′-hydroxy-biphenyl-4-yl)-acrylic acid trifluoroacetate] | 32 to 64 | 32 to 64 | –
5 | 0.5 to 1 (≈ 1.25 to 2.5 µM) | – | 2 (≈ 5.01 µM) | N#C/C(=C\c1ccc(-c2ccc(O)c(C34CC5CC(CC(C5)C3)C4)c2)cc1)C(=O)O [Compound 4] | 4 (≈ 10 µM) | 4 (≈ 10 µM) | –
6 | – | – | 16 (≈ 41.4 µM) | COc1ccc(-c2ccc(C#CC(=O)O)cc2)cc1C12CC3CC(CC(C3)C1)C2 [Compound 7, 4-(3-(1-adamantyl)-4-methoxyphenyl)propiolic acid] | – | – | –
7 | – | 2 to 4 (≈ 5.1 to 10.2 µM) | – | O=C(O)/C(F)=C\c1ccc(-c2ccc(O)c(C34CC5CC(CC(C5)C3)C4)c2)cc1 [Compound 5, E-2-Fluoro-3-[3′-(adamantan-1-yl)-4′-hydroxybiphenyl-4-yl]-acrylic Acid] | 16 (≈ 40.8 µM) | 8 to 16 (≈ 20.4 to 40.8 µM) | MIC [1, 9]: 4 µg/mL (≈ 10.2 µM); melting point: 202 °C
8 | 2 to 4 (≈ 3.83 to 7.65 µM) | 4 to 8 (≈ 7.65 to 15.3 µM) | – | O=C(O)/C=C/c1ccc(-c2cc(CNC(=O)Nc3ccccc3)c(O)c(C34CC5CC(CC(C5)C3)C4)c2)cc1 [Compound 18] | 16 (≈ 30.6 µM) | 8 (≈ 15.3 µM) | –
9 | 1 to 2 (≈ 2.4 to 4.8 µM) | 2 to 4 (≈ 4.8 to 9.6 µM) | – | O=C(O)C=Cc1ccc(-c2cc3c(c(C45CC6CC(CC(C6)C4)C5)c2)OCCO3)cc1 [Compound 16, 3-{4-[8-(Adamantan-1-yl)-2,3-dihydro-benzo[1,4]-dioxin-6-yl]-phenyl}-acrylic acid] | – | – | –
10 | 2 to 4 (≈ 4.49 to 8.98 µM) | 4 to 8 (≈ 8.98 to 18 µM) | – | CC(=O)NCc1cc(-c2ccc(/C=C/C(=O)O)cc2)cc(C23CC4CC(CC(C4)C2)C3)c1O [Compound 17, E-3-[3′-(Acetylaminomethyl)-4′-hydroxy-5′-(adamantan-1-yl)biphenyl-4-yl]-acrylic acid] | 16 (≈ 35.9 µM) | 16 (≈ 35.9 µM) | –
11 | – | – | 128 (≈ 286 µM) | O=C(O)/C=C/c1ccc(-c2ccc(OCC(=O)NO)c(C34CC5CC(CC(C5)C3)C4)c2)cc1 [Compound 9] | – | – | –
12 | – | – | 0.5 (≈ 1.39 µM) | OCC#Cc1ccc(-c2ccc(O)c(C34CC5CC(CC(C5)C3)C4)c2)cc1 [Compound 2, 3-(adamantan-1-yl)-4′-(3-hydroxyprop-1-yn-1-yl)-[1,1′-biphenyl]-4-ol] | 2 to 4 (≈ 5.58 to 11.2 µM) | 4 (≈ 11.2 µM) | MIC [1, 9]: 0.5 µg/mL (≈ 1.39 µM)
13 | 8 to 16 (≈ 21.2 to 42.5 µM) | 8 to 16 (≈ 21.2 to 42.5 µM) | – | O=C(O)CCc1ccc(-c2ccc(O)c(C34CC5CC(CC(C5)C3)C4)c2)cc1 [Compound 19, 3-(3′-Adamantan-1-yl-4′-hydroxybiphenyl-4-yl)propionic Acid] | 32 (≈ 85 µM) | 16 (≈ 42.5 µM) | –
14 | 32 to 64 (≈ 79.5 to 159 µM) | 16 to 64 (≈ 39.8 to 159 µM) | – | O=Cc1cc(-c2ccc(/C=C/C(=O)O)cc2)cc(C23CC4CC(CC(C4)C2)C3)c1O [Compound 21, E-3-[3′-Formyl-4′-hydroxy-5′-(adamantan-1-yl)-biphenyl-4-yl]-acrylic acid] | – | – | –
15 | – | – | 64 (≈ 216 µM) | CC(C)(C)c1cc(-c2ccc(/C=C/C(=O)O)cc2)ccc1O [Compound 6, E-3-(3′-tert-Butyl-4′-hydroxybiphenyl-4-yl)acrylic Acid] | – | – | melting point: 218 °C
16 | – | 64 to 128 | – | N#C/C=C/c1ccc(-c2ccc(O)c(C34CC5CC(CC(C5)C3)C4)c2)cc1 (mixture of isomers) [Compound 1] | 128 | 128 | MIC [1, 9]: 32 µg/mL
17 | – | – | 32 (≈ 69.3 µM) | CC(Oc1ccc(-c2ccc(/C=C/C(=O)O)cc2)cc1C12CC3CC(CC(C3)C1)C2)C(=O)NO (stereo not shown) [Compound 10] | – | – | –

Row | SMILES | MIC [1, 7] [µg/mL] | MIC [2, 8] [µg/mL] | MIC ([2]; values without asterisk) [µg/mL] | MBC [1] [µg/mL] | MBC [2] [µg/mL] | also measured
18 | O=C(O)C=Cc1ccc(-c2ccc(OCCCCO)c(C34CC5CC(CC(C5)C3)C4)c2)cc1 [Compound 11, 3-[3′-Adamantan-1-yl-4′-(hydroxy-butoxy)-biphenyl-4-yl]-acrylic acid] | – | 64 to 256 (≈ 143 to 573 µM) | – | – | – | MIC [4]: 64 µg/mL (≈ 143 µM); MIC [1, 9]: 128 µg/mL (≈ 287 µM); MIC (S. Aureus ATCC 25923): 128 to 256 µg/mL (≈ 287 to 573 µM); MIC [5]: 128 µg/mL (≈ 287 µM); MIC [6]: 128 to 256 µg/mL (≈ 287 to 573 µM)
